Among the data in ChEMBL document CHEMBL1201862, “PubChem BioAssay data set” (2004) are EC50 and IC50 values, retold here.

Calls of active or inactive are those of the source.

Assay [1] concerns the target G-protein coupled receptor 55 (Homo sapiens, UniProt Q9Y2T6). As to the kind of experiment: GPR55 agonists via beta-arrestin recruitment, primary screen, imaging, U2OS cells, beta-arrestin-GFP redistribution (AID 1961). The assay is classed as functional. Background: Recruitment of arrestin is a read-out of receptor activation apart from second messengers.
Assay [2] has as its target T1, RNA-binding protein pos-1 (Caenorhabditis elegans, UniProt G5EF15).
T1 sequence (G5EF15 whole entry): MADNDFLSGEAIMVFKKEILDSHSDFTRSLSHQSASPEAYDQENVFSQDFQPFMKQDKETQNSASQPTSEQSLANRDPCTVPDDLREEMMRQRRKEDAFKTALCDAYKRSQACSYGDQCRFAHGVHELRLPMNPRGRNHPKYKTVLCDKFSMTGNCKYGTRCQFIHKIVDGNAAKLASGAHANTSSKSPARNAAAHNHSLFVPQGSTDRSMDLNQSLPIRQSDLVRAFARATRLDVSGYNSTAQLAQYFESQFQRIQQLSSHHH
The experiment in a line: inhibitors of POS-1/mex-3 RNA binding, dose response, biochemical, fluorescence polarization (AID 1964).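 Note: purified POS-1 fused to maltose binding protein made in E. coli; potency of compounds blocking POS-1 binding to fluorescent RNA.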 A general note: Fluorescence polarisation rises when a labelled molecule tumbles more slowly, as on binding a larger partner.

Assay [3] deals with T2, Endoribonuclease toxin MazF (Escherichia coli K-12, UniProt P0AE70).
T2 sequence (P0AE70 whole entry): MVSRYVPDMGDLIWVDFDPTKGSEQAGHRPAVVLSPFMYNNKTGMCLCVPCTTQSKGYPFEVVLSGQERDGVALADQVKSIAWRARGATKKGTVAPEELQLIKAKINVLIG
As to the kind of experiment: fluorescent RNA oligo signal without MazF, dose response, counter-screen for MazEF activator project, biochemical, fluorescence, single-stranded RNase substrate (AID 588502). Type of assay: functional.

Assay [4] concerns the target T2, Endoribonuclease toxin MazF. As to the kind of experiment: MazF toxin RNase activators, dose response, biochemical, fluorescence, single-stranded RNA substrate, uHTS hits (AID 588481). Type of assay: functional.
For assay [5], the target named is Neurotensin receptor type 1 (Homo sapiens, UniProt P30989). The assay is classed as functional.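 Note: Image-based confirmatory dose-response assay measuring agonist activity at NTR1; NTR1-expressing U2OS osteosarcoma cells imaged for beta-arrestin GFP spot formation; agonist potency where compounds increase beta-arrestin recruitment.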
Sequence of Neurotensin receptor type 1 (P30989 whole entry): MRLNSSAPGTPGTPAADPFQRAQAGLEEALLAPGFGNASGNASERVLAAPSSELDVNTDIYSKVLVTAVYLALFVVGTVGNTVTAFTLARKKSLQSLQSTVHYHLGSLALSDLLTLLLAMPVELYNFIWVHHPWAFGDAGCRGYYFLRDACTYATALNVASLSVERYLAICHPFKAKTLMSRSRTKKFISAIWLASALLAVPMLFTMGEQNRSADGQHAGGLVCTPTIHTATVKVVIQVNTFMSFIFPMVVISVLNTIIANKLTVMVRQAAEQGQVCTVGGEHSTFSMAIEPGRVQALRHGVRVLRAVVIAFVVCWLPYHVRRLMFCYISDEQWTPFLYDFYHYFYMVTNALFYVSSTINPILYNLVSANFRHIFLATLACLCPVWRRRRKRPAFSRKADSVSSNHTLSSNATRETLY
In assay [6] the target is T3, Zinc finger protein mex-5 (Caenorhabditis elegans, UniProt Q9XUB2).
T3 sequence (Q9XUB2 whole entry): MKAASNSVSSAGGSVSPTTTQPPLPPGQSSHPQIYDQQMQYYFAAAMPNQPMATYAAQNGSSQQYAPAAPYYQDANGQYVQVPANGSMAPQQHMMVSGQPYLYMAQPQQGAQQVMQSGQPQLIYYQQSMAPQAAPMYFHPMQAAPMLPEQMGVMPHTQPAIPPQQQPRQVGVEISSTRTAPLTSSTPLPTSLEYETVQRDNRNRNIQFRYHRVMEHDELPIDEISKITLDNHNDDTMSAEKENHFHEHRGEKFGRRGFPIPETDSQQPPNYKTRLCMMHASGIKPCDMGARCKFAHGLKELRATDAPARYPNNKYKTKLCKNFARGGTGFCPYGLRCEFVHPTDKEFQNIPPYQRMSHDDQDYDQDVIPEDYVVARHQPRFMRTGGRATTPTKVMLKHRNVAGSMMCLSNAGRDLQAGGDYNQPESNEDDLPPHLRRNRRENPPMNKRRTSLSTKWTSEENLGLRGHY
The experiment in a line: MEX-5/TCR-2 RNA interaction inhibitors, dose response, biochemical, C. elegans, fluorescence polarization (AID 1960).

In assay [7] the target is T4, Trace amine-associated receptor 1 (Homo sapiens, UniProt Q96RJ0).
T4 sequence (Q96RJ0 whole entry): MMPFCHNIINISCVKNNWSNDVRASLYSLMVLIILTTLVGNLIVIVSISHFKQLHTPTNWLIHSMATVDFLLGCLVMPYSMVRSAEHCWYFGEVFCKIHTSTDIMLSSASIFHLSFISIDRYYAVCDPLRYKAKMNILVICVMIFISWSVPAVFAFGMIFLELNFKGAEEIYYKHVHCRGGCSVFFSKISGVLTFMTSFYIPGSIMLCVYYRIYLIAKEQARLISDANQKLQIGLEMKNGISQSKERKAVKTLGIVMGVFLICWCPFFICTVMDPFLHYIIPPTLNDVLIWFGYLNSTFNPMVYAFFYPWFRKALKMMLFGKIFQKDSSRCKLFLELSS
As to the kind of experiment: Fluorescence-based cell-based high throughput dose response assay to identify agonists of the human trace amine associated receptor 1 (TAAR1). The assay is classed as functional.

A short description of assay [8]: cells. Type of assay: functional, cell-based.
Assay [9] concerns the target T4, Trace amine-associated receptor 1. As to the kind of experiment: Counterscreen for agonists of the human trace amine associated receptor 1 (hTAAR1): Fluorescence-based cell-based high throughput dose response assay to identify hTAAR1 agonist that also desensitize TAAR1 receptor response. Type of assay: functional. On the technique in general: The purpose of a counterscreen is to sort out artefacts and off-target activity.

A short description of assay [10]: cells. The assay is classed as functional, cell-based. The source holds these as a separate data set.
A further assay deals with Coagulation factor XII (Homo sapiens, UniProt P00748). As to the kind of experiment: FXIIa inhibitor potency, concentration-response, biochemical (AID 716). Type of assay: functional.
Sequence of Coagulation factor XII (P00748 20-372 limits assumed): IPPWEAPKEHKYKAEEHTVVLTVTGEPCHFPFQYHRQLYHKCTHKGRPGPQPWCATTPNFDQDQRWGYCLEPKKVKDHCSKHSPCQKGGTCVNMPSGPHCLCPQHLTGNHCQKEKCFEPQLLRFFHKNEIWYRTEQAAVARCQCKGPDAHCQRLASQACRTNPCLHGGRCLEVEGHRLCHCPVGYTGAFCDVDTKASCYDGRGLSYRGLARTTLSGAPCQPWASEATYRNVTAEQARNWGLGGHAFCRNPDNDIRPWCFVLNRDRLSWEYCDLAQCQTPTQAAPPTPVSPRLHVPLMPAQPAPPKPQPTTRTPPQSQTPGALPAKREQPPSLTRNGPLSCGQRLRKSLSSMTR
Sequence of Coagulation factor XII (P00748 373-615 limits assumed): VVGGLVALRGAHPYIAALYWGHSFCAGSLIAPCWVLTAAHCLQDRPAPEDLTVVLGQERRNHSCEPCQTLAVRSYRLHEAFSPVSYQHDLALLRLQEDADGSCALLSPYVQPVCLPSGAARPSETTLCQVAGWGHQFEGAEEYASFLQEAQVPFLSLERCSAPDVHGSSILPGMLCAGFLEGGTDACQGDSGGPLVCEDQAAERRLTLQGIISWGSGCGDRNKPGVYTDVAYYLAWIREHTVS
Assay [11] has as its target Glyceraldehyde-3-phosphate dehydrogenase (Homo sapiens, UniProt P04406).
The target in assay [12] is Dual specificity protein phosphatase 3 (Homo sapiens, UniProt P51452). The experiment in a line: SAR VHR1 Fluorescent Assay for In Vitro dose response studies. [Related pubchem assays (depositor defined):AID1654, AID1661, AID1878, AID1992, AID2004, AID2070, AID2085]. The assay is classed as functional.
Sequence of Dual specificity protein phosphatase 3 (P51452 whole entry): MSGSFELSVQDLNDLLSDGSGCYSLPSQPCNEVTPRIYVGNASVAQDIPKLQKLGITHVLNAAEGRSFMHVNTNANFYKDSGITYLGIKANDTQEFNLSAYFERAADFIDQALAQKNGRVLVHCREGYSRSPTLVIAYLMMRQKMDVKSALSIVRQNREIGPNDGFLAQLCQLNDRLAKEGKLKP
The target in assay [13] is T5, Tyrosine-protein phosphatase non-receptor type 7 (Homo sapiens, UniProt P35236).
T5 sequence (P35236 whole entry): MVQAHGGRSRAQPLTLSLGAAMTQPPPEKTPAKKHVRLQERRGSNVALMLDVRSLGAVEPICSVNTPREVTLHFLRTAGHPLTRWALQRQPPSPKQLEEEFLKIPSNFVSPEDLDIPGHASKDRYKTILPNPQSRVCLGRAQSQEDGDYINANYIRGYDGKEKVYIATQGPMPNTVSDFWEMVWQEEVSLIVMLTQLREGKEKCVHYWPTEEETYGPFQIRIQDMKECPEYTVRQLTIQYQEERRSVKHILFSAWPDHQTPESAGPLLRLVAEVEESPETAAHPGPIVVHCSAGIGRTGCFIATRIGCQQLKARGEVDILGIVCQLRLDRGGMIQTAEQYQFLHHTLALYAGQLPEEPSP
Type of assay: functional.

Assay [14] has as its target Heat shock cognate 71 kDa protein (Homo sapiens, UniProt P11142). As to the kind of experiment: In Vitro Hsc70 Dose Response Fluorescence Polarization Assay. [Related pubchem assays: 1072 ].
Assay [15] addresses T6, Dual specificity protein phosphatase 6 (Rattus norvegicus, UniProt Q64346).
T6 sequence (Q64346 whole entry): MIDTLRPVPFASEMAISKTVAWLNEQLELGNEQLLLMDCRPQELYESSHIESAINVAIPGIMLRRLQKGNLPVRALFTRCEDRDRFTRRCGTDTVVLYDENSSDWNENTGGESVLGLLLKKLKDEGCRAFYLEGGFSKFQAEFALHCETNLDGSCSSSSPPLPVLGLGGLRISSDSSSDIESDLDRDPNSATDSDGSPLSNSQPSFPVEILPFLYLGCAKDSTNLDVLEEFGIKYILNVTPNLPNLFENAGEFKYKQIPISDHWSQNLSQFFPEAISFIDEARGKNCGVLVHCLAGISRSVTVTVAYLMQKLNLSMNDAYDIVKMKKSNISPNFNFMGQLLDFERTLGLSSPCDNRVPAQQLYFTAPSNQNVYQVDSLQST

The target in assay [16] is T5, Tyrosine-protein phosphatase non-receptor type 7. The experiment in a line: redox-dependent HePTP inhibition, mechanism study, biochemical, fluorescence (AID 2068). Type of assay: functional.
In assay [17] the target is Heat shock 70 kDa protein 1A (Homo sapiens, UniProt P0DMV8). The experiment in a line: Hsp70 inhibitors, SAR follow-up, biochemical, fluorescence polarization (AID 1072).
Sequence of Heat shock 70 kDa protein 1A (P0DMV8 whole entry): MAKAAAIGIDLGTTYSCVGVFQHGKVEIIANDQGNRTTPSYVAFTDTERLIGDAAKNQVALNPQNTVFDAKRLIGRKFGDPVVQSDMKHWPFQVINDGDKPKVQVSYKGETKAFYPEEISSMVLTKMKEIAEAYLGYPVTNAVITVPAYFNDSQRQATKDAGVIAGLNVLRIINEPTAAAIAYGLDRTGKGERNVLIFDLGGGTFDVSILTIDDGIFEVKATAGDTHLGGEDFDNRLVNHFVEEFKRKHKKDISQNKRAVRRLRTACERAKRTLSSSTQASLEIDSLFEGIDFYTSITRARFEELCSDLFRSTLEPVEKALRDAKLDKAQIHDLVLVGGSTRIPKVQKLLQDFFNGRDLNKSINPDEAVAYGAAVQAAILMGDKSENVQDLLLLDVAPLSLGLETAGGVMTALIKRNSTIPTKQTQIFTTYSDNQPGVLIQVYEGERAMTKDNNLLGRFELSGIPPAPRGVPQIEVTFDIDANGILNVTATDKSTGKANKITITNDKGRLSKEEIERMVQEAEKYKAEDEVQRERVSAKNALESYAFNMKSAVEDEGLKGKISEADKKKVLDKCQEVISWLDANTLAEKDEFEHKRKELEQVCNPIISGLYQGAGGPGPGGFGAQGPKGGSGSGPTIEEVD
Assay [18] deals with T7, Alkaline phosphatase, tissue-nonspecific isozyme (Homo sapiens, UniProt P05186).
T7 sequence (P05186 whole entry): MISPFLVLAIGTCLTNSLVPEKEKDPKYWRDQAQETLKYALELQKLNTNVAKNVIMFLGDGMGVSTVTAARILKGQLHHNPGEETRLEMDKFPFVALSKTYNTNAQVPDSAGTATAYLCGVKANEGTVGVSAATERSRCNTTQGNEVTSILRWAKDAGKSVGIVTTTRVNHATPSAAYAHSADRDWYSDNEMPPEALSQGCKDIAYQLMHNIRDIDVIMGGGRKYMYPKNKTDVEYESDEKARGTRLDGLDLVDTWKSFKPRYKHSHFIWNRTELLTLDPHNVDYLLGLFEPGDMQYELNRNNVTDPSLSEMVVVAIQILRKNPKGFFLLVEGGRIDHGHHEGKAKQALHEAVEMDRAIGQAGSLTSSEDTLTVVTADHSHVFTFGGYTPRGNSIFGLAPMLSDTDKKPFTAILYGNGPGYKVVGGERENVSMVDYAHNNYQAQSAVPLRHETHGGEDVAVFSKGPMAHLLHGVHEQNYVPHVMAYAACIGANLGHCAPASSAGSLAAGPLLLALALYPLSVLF
The experiment in a line: TNAP enzyme activators, dose response, selectivity assay for human IAP activator project, biochemical, TNAP isozyme, human IAP uHTS hits (AID 488886).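 Note: potency of compounds raising TNAP activity as a selectivity check on IAP activators.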 The assay is classed as functional.

Assay [19] has as its target T8, Intestinal-type alkaline phosphatase (Homo sapiens, UniProt P09923). The experiment in a line: human intestinal alkaline phosphatase activators, dose response, biochemical, luminescence, uHTS hits (AID 463120). Type of assay: functional.
The target of assay [20] is Intestinal-type alkaline phosphatase (Mus musculus, UniProt P24822). The experiment in a line: PubChem AID 488875. The assay is classed as functional.
Sequence of Intestinal-type alkaline phosphatase (Mus musculus, UniProt P24822) (P24822 whole entry): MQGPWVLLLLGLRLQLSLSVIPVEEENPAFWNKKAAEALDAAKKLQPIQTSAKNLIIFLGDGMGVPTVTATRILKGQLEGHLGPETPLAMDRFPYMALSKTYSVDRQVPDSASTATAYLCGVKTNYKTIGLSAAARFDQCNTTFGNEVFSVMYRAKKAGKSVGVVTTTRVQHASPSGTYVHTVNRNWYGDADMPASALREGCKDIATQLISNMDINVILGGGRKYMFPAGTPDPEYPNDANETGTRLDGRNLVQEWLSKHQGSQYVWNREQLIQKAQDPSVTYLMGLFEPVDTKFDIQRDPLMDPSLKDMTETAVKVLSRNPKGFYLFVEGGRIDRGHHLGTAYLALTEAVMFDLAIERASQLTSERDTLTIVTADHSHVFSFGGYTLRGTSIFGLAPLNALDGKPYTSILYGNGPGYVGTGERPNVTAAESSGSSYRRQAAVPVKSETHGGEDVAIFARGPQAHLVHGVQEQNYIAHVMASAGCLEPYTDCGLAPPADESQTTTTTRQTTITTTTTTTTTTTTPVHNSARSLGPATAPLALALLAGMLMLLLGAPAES
Assay [21] has as its target T8, Intestinal-type alkaline phosphatase. As to the kind of experiment: human IAP activators, dose response, biochemical, luminescent, uHTS hits, set 2 (AID 488817).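 Note: potency of activators that raise enzyme activity.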 Type of assay: functional.
The next assay has as its target Hexokinase (Trypanosoma brucei, UniProt Q38C41). As to the kind of experiment: Confirmation assay for inhibitors of Trypanosoma brucei hexokinase 1-Analogue-first series. [Related pubchem assays (depositor defined):AID1430, AID1632, AID2516, AID2560, AID2579, AID2600, AID449725, AID492951]. Type of assay: functional.

T8 sequence (P09923 whole entry): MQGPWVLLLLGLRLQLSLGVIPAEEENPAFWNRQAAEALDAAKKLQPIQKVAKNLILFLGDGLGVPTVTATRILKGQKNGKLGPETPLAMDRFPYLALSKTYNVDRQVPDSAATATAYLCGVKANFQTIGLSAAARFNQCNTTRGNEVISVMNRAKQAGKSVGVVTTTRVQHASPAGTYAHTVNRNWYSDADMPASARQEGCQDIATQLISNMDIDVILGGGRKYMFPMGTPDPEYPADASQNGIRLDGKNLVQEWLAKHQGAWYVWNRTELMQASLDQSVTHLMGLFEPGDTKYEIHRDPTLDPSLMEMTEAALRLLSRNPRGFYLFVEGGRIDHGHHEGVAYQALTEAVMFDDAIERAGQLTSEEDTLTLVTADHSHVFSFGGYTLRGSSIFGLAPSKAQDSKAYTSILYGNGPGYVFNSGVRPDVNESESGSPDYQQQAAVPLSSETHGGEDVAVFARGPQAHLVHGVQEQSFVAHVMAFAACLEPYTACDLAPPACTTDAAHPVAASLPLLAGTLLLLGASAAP
Sequence of G-protein coupled receptor 55 (Q9Y2T6 whole entry): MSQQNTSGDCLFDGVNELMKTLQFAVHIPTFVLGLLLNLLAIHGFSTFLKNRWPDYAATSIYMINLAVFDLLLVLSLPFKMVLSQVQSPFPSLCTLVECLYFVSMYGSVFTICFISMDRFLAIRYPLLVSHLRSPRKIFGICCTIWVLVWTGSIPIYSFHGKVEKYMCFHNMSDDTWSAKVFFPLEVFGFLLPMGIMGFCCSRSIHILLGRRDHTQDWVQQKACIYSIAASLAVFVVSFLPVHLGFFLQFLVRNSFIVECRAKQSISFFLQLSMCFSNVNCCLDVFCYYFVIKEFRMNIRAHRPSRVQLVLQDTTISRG
Sequence of Hexokinase (Q38C41 whole entry): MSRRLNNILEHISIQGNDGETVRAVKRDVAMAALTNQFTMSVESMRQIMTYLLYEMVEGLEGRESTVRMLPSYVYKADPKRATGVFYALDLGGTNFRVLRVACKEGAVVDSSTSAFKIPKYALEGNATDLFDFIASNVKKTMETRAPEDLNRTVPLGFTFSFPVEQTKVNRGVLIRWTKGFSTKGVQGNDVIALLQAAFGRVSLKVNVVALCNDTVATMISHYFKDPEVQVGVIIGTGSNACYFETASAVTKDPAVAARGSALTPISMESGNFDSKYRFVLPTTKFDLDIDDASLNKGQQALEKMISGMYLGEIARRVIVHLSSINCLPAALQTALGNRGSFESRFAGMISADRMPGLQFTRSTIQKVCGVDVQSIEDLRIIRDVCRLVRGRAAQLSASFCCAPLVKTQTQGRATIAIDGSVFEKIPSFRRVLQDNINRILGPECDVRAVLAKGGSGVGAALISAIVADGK
Sequence of Glyceraldehyde-3-phosphate dehydrogenase (P04406 whole entry): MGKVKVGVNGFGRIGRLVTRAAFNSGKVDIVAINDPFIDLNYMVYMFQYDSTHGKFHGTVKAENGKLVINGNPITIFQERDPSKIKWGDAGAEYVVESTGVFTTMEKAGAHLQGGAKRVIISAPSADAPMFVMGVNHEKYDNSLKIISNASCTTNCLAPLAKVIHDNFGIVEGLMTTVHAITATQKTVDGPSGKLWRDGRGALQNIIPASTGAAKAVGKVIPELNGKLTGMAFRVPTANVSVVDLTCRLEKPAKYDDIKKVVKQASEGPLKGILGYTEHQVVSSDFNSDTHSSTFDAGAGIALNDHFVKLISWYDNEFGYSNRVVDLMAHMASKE
Sequence of Heat shock cognate 71 kDa protein (P11142 whole entry): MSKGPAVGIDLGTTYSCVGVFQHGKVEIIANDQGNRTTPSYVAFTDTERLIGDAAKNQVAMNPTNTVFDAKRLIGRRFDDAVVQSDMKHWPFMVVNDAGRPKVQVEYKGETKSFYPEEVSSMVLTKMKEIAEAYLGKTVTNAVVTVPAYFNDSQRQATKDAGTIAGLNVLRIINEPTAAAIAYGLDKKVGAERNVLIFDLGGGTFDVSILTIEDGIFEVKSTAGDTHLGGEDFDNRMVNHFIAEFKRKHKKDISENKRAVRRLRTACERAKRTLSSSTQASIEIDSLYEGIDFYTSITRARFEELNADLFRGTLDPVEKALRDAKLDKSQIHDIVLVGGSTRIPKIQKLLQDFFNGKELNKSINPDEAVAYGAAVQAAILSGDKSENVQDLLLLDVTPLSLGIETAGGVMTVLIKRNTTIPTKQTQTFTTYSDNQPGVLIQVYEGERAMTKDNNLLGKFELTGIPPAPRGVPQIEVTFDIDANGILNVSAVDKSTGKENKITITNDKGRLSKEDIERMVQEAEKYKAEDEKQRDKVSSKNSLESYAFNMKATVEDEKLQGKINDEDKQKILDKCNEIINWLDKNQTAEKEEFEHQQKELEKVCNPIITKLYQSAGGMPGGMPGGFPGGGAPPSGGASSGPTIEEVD

Broadly, the EC50 is the concentration giving half of the maximal effect. In the case of `COc1cc2c3nnc(-c4ccccc4)c-3cn(Cc3ccccc3F)c2cc1OC`, the EC50 in assay [1] is 0.807 µM (active); in [2], > 300 µM (not active); in assay [3], 34.6 µM (inactive); in [4] it was > 99 µM (inactive); in [5], 5.8 µM (active); in assay [6], > 300 µM (inconclusive).
Usually IC50 stands for the concentration that gives 50% inhibition. As to `O=C(O)C1CCCCC1C(=O)NCCc1ccccc1` (stereo not drawn), the concentration for a half-maximal effect (EC50) in [7] was 1.42 µM (active); in “cells [10]”, > 29.9 µM (inactive). The IC50 was > 29.9 µM (inactive) in the assay “cells [8]”, 8.04 µM (active) in [9] and > 50 µM (inactive) at Coagulation factor XII.
Turning to `O=C1c2ccccc2CC1Sc1nnc(-c2ccco2)c(-c2ccco2)n1` (stereo not drawn), the IC50 is > 100 µM (not active) in assay [11]; 27.9 µM (active) in [12]; 8.11 µM (active) in [13]; > 100 µM (not active) in [14]; 42.1 µM (active) in assay [15]; 1.12 µM (active) in assay [16]. The half-maximal inhibitory concentration (IC50) in [17] is recorded as > 100 µM (not active).
For the molecule `COc1cc(CN2CCC(n3nccc3NC(=O)CCCc3ccccc3)CC2)ccc1F`, the EC50 in assay [18] was 66.1 µM (active); in assay [19], 68.7 µM (active); in assay [20], 58.2 µM (active); in assay [21], 79.7 µM (active).
In the case of `CCc1ccc(C(=O)Nc2cc(Cl)ccc2C(=O)O)cc1`, at Hexokinase, the half-inhibitory concentration (IC50) is 3.04 µM (active).
